Data taken from patent publication US9708338B2, “Aromatic heterocyclylamine derivative having TRPV4-inhibiting activity” (Shionogi & Co., Ltd., priority 2013, dated 2017).

How the values were obtained:
[1] = target: T1, human ether-a-go-go related gene (hERG) channel (Homo sapiens, UniProt Q12809); assay: Test Example 8 hERG test; assay type: cell-based; conditions: 1 μmol/L of test compound; CHO cells expressing hERG; whole cell patch clamp (QPatch)
T1 construct: expressed in transfected cells; host or cells: CHO
Text: For the purpose of assessing risk of an electrocardiogram QT interval prolongation of the compound of the present invention, effects of the compound of the present invention on delayed rectifier K^+ current (IKr), which plays an important role in the ventricular repolarization process, was studied using CHO cells expressing human ether-a-go-go related gene (hERG) channel.
After a cell was retained at a membrane potential of −80 mV by whole cell patch clamp method using an automated patch clamp system (QPatch; Sophion Bioscience A/S), IKr induced by depolarization pulse stimulation at +20 mV for 2 seconds and, further, repolarization pulse stimulation at −50 mV for 2 seconds, was recorded. […] From the recording IKr, an absolute value of the tail peak current was measured based on the current value at the resting membrane potential using analysis software (Falster Patch; Sophion Bioscience A/S). Further, the % inhibition relative to the tail peak current before application of the compound of the present invention was calculated, and compared with the vehicle-applied group (0.1% dimethyl sulfoxide solution) to assess influence of the compound of the present invention on IKr. […]

human TRPV4 [2] = target: T2, human TRPV4 (Homo sapiens, UniProt Q9HBA0); assay: Test Example 1 Measurement of TRPV4 inhibitory activity (IC50 value); assay type: cell-based; conditions: CHO-K1 cells stably expressing human TRPV4; Fluo 4-AM, FLIPR TETRA; final 1 μmol/L 4α-PDD
T2 construct: expressed in transfected cells; host or cells: CHO-K1
Method: (§1) For each compound, TRPV4 inhibitory activity was measured using cells. (Method) TRPV4 inhibitory activity of the compound was evaluated in accordance with the following procedure.
(§2) (1) The TRPV4 inhibitory activity was measured using CHO-K1 cells stably expressing human TRPV4.
(2) In the day before the experimental day, frozen cell were thawed and washed with the culture medium (MEM-α, 10% FBS, 2 mmol/L GlutaMax, 50 unit Penicillin, 50 μg/mL Streptomycin, 20 mmol/L HEPES). Then cells were suspended in the culture medium.
(3) The 384-well plates which hTRPV4/CHO cells were seeded at densities of 4000 cells/well in the culture medium and cultured in a CO2 incubator in the presence of 5% CO2 at 37° C. for overnight was used as assay plates.
(4) The assay plate was washed with assay buffer (Hanks, 20 mmol/L HEPES, 2.5 mmol/L probenecid, pH 7.4), and the buffer were remained at 20 μL/well.
(5) 10 μl of dye loading buffer (9 μmol/L Fluo 4-AM, 0.09% Pluronic F-127/assay buffer) was added to each well, then the assay plate was incubated in a CO2 incubator in the presence of 5% CO2 at 37° C. for one hour (final 3 μmol/L Fluo4-AM).
(6) The assay plate was washed with the assay buffer, and the buffers were remained at 20 μL/well. Then the assay plate was incubated for 10 min at room temperature.
(7) 20 μL/well of diluted compound solution was dispensed to each well in the compound plate, and mixed with built-in Pipette and Mixer of the Fluorescence analysis system FLIPR TETRA (Molecular devices).
(8) After incubation for 5 min, 20 μL/well of 4α-PDD solution were applied to each well of assay plate and mixed with the FLIPR TETRA (final 1 μmol/L 4α-PDD).
(9) The fluorescent intensity was measured with FLIPR TETRA system for 5 min from the point of time addition the compound solution, at Ex 470-495 nm, Em 515-575 nm wavelength.
(§3) In addition, TRPV4 inhibitory activity (IC50 value) of a compound was evaluated according to the following procedure.
(10) In the presence of the compound, the difference between maximal and minimal of fluorescent intensity value for 5 min from just before addition of 4α-PDD solution was calculated, and it was referred as Max−Min value. Max−Min value of the compound A at 1 μmol/L was defined as 100% inhibitory activity, Max−Min value in the absence of the compound was defined as 0% inhibitory activity. The TRPV4 inhibitory activity of the compound was calculated by the following formula. Inhibition ratio=(1−(Max−Min value of the compound−100% inhibitory activity)/(0% inhibitory activity−100% inhibitory activity))×100
Herein, the compound A is the compound I-186 described in PCT/JP2013/058722.
(11) Inhibitory activity was calculated at 10 points with three fold serial dilution, in the final concentration of the compound from 10 μmol/L to 0.5 nmol/L, the IC50 value (nmol/L) was calculated by logistic approximation method.

[3] = Test Example 7 Metabolism stability test; assay type: in vitro ADME; conditions: 0.5 μmol/L of test compound, human liver microsomes 0.5 mg protein/mL, 37° C.
Method: Using commercially available pooled human hepatic microsomes, a compound of the present invention was reacted for a constant time, and a remaining rate was calculated by comparing a reacted sample and an unreacted sample, thereby, a degree of metabolism in liver was assessed.
A reaction was performed (oxidative reaction) at 37° C. for 0 minute or 30 minutes in the presence of 1 mmol/L NADPH in 0.2 mL of a buffer (50 mmol/L Tris-HCl pH 7.4, 150 mmol/L potassium chloride, 10 mmol/L magnesium chloride) containing 0.5 mg protein/mL of human liver microsomes. After the reaction, 50 μL of the reaction solution was added to 100 μL of a methanol/acetonitrile=1/1 (v/v), mixed and centrifuged at 3000 rpm for 15 minutes. The compound of the present invention in the supernatant was quantified by LC/MS/MS, and a remaining amount of the compound of the present invention after the reaction was calculated, letting a compound amount at 0 minute reaction time to be 100%. Hydrolysis reaction was performed in the absence of NADPH and glucuronidation reaction was in the presence of 5 mmol/L UDP-glucuronic acid in place of NADPH, followed by similar operations. (Result) % inhibition was shown at 0.5 μmol/L of test compound.

CYP3A4 = target: T3, CYP3A4 (Homo sapiens, UniProt P08684); assay: Test Example 3 CYP3A4 fluorescent MBI test; assay type: in vitro ADME; conditions: CYP3A4 expressed in Escherichia coli; substrate 7-BFC; pre-reaction time 0 or 30 minutes
T3 construct: host or cells: Escherichia coli
Method: The CYP3A4 fluorescent MBI test is a test of investigating enhancement of CYP3A4 inhibition of a compound of the present invention by a metabolism reaction, and the test was performed using, as CYP3A4 enzyme expressed in Escherichia coli and employing, as an index, a reaction in which 7-benzyloxytrifluoromethylchmarin (7-BFC) is debenzylated by the CYP3A4 enzyme to produce a metabolite, 7-hydroxytrifluoromethylchmarin (7-HFC) emitting fluorescent light.
The reaction conditions were as follows: substrate, 5.6 μmol/L 7-BFC; pre-reaction time, 0 or 30 minutes; reaction time, 15 minutes; reaction temperature, 25° C. […]
An enzyme in a K-Pi buffer (pH 7.4) and a solution of a compound of the present invention as a pre-reaction mixture were added to a 96-well plate at the above composition of the pre-reaction, a part of it was transferred to another 96-well plate so that it was 1/10 diluted by a substrate in a K-Pi buffer, NADPH as a co-factor was added to initiate a reaction as an index (without preincubation) and, after a predetermined time of a reaction, acetonitrile/0.5 mol/L Tris (trishydroxyaminomethane)=4/1 (v/v) was added to stop the reaction. […] For the plate on which each index reaction had been performed, a fluorescent value of 7-HFC which is a metabolite was measured with a fluorescent plate reader. […]

human TRPV4 [4] = target: T2, human TRPV4; assay: Test Example 2' Measurement of TRPV4 inhibitory activity (IC50 value); assay type: cell-based; conditions: CHO-K1 cells stably expressing human TRPV4; DMEM 3% FBS, 3000 cells/well; final 0.15 μmol/L 4α-PDD
Method: as §1, §2
(2) In the day before the experimental day, frozen cell were thawed and washed with the culture medium (DMEM, 3% FBS, 2 mmol/L GlutaMax, 50 unit Penicillin, 50 μg/mL Streptomycin, 0.1 mmol/L Non-Essential Amino Acids, 25 mmol/L HEPES). Then cells were suspended in the culture medium. […] (7) 20 μL/well of diluted compound solution was dispensed to each well in the compound plate, and mixed with built-in Pipette and Mixer of the Fluorescence analysis system FLIPR TETRA (Molecular devices). […] (9) The fluorescent intensity was measured with FLIPR TETRA system for 5 min from the point of time addition the compound solution, at Ex 470-495 nm, Em 515-575 nm wavelength.
as §3
(10) In the presence of the compound, the difference between maximal and minimal of fluorescent intensity value for 5 min from just before addition of 4α-PDD solution was calculated, and it was referred as Max−Min value. […] The TRPV4 inhibitory activity of the compound was calculated by the following formula. […]

T2 sequence (Q9HBA0 whole entry): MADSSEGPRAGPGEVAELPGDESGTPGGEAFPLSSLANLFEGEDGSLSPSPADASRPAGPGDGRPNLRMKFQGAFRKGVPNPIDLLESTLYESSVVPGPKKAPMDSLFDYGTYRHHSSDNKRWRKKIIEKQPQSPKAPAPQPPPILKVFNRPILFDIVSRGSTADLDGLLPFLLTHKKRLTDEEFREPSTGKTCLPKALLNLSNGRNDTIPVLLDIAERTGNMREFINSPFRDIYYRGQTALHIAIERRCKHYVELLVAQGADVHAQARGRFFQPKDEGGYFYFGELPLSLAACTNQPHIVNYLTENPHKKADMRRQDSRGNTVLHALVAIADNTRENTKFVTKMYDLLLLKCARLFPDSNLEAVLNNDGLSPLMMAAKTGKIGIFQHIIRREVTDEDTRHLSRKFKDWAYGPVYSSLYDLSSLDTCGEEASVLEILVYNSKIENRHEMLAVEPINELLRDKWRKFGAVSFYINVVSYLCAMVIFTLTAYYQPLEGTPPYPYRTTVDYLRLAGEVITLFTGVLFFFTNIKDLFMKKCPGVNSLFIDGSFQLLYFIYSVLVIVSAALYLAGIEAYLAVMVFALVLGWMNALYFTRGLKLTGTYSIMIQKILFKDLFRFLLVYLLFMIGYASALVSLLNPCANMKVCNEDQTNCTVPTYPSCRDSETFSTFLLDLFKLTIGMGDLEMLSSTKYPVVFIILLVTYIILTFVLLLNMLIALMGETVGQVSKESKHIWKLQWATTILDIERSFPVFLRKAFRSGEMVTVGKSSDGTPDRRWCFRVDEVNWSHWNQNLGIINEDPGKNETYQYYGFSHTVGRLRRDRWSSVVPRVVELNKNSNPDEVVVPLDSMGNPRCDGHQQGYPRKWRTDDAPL
T3 sequence (P08684 whole entry): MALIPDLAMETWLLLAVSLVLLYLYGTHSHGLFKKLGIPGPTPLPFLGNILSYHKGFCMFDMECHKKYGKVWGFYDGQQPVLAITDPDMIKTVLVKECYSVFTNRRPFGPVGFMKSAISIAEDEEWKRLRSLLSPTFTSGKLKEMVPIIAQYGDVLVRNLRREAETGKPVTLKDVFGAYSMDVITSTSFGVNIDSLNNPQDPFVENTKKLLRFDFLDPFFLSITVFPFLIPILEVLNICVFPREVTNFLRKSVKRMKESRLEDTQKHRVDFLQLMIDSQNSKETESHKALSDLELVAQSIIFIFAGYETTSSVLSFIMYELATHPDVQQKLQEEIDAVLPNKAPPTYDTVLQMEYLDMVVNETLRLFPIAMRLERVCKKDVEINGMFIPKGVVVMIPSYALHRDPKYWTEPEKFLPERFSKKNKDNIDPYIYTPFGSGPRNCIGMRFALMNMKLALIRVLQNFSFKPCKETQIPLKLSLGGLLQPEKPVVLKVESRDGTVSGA
T1 sequence (Q12809 whole entry): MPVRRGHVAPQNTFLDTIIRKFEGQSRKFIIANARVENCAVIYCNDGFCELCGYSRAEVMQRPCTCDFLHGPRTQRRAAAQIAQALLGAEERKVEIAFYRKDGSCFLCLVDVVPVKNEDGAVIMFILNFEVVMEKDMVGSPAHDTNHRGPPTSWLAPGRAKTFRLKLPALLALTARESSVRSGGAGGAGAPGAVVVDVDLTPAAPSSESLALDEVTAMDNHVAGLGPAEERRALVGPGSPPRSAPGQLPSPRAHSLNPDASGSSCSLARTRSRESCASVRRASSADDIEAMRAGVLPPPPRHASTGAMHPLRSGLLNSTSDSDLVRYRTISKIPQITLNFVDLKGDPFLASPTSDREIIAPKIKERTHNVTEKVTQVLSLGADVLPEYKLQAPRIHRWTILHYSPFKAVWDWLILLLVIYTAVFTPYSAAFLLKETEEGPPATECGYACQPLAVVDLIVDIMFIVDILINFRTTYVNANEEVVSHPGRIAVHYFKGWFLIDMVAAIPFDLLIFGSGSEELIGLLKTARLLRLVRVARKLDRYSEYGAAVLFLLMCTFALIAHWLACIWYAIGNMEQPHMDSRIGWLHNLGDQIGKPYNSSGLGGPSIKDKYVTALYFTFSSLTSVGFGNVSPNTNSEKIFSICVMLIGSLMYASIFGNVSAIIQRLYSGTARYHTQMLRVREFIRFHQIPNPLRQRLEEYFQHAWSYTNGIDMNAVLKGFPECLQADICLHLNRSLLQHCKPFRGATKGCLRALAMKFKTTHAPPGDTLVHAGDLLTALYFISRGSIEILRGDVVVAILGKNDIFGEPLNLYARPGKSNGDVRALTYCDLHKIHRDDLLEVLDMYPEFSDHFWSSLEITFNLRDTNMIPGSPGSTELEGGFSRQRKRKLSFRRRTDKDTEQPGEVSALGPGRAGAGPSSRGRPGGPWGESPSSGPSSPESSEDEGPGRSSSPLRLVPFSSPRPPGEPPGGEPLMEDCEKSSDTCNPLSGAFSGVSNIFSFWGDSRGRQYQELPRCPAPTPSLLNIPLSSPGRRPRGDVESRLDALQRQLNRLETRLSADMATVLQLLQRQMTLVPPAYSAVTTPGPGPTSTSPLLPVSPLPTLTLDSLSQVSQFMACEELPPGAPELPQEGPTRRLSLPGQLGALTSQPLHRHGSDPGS

Row | SMILES | hERG % inhibition of tail peak current (IKr) [1] [%] | IC50 (human TRPV4 [2]) [nM] | Percent of compound remaining after 30 min incubation [3] [%] | CYP3A4 fluorescent MBI: difference between IC50 values (CYP3A4) | IC50 (human TRPV4 [4]) [nM]
1 | Cc1nc(C)c(-c2csc(Nc3ccc(CNc4ccc(Cl)cc4F)cn3)n2)s1 [Compound I-48] | 8.1 | 1.2 | 78.6 |  | 
2 | Cc1nc(C(C)O)sc1-c1csc(Nc2ccc(CNc3ccc(Cl)cc3F)cn2)n1.Cl.Cl (stereo not shown) [Compound I-157] |  | 14 | 83.6 | (−) (when the difference is 3 μmol/L or less, this was defined as (−)) | 
3 | Cc1nc(C)c(-c2csc(Nc3ccc(C(=O)C4CCCC4)cn3)n2)s1 [Compound I-897] |  |  |  |  | 2.8
